Assay results taken from patent US5691365A, “Nicotinic receptor antagonists in the treatment of neuropharmacological disorders” (University of Kentucky Research Foundation, priority 1995, dated 1997).
Several values for one entry are separate records, joined by “and”; a condition that tells them apart may be missing. Equal entries are not always repeated. Entries after “also recorded” stand apart in the source; their conditions may differ.

Legend:
[1] = Ames type assays and chronic exposure studies; cited from earlier work
skin = conditions: cited from earlier work
[2] = animal and human experiments; cited from earlier work
[3] = tested on: rat striatal synaptosomes; conditions: cited from earlier work
[4] = tested on: rat hypothalamic and corticotropin-releasing hormone secretion; conditions: cited from earlier work
[5] = tested on: S(-)nicotine (10 μM)-evoked [^3 H]DA release from rat striatal slices; assay type: cell-based
Experimental: (§1) Biological Methods. Male Spragua-Dawley rats (150-200 g) were obtained from Harlan Laboratories (Indianapolis, Ind.) and were housed two per cage with free access to food and water in the Division of Lab Animal Resources at the College of Pharmacy at the University of Kentucky. Experimental protocols involving the animals were approved by the Institutional Animal Care and Use Committee at the University of Kentucky.
(§2) [^3 H]DA Release Assay. Rat striatal slices (500 μm thickness, 6-8 mg wet weight) were obtained as previously described (Dwoskin and Zahniser, 1986). Slices were incubated for 30 min in Krebs' buffer ([…]; 118 NaCl, 4.7 KCl, 1.2 MgCl2, 1.0 NaH2 PO4, 1.3 CaCl2, […], 11.1 glucose, 25 NaHCO3, 0.11 L-ascorbic acid nd 0.004 disodium EDTA; pH 7.4 and saturated with 95% O2 /5% CO2) in a metabolic shaker at 34°. Slices were rinsed with 15 ml of fresh buffer and incubated for an additional 30 min in fresh buffer containing 0.1 μM [^3 H]dopamine (6 slices/3 ml). Subsequently, slices were rinsed with 15 ml of fresh buffer and transferred to a glass superfusion chamber. Slices were superfused (1.0 ml/min) for 60 min with Krebs' buffer containing nomifensine (10 μm) and pargyline (10 μm) and maintained at 34° C., pH 7.4 with continual aeration (95% O2 /5% CO2). Two 5-min samples (5 ml) were collected to determine basal outflow of [^3 H]DA. N-Substituted nicotine analogues were added to the superfusion buffer after the collection of the second sample and remained in the buffer until 12 consecutive 5-min samples were collected. […] At the end of the experiment each slice was solubilized and the [^3 H] content of the tissue determined.
(§3) Radioactivity in the superfusate and tissue samples was determined by liquid scintillation spectroscopy. Fractional release for each superfusate sample was calculated by dividing the total tritium collected in each sample by the total tritium present in the tissue at the time of sample collection. Basal [^3 H]out flow was calculated from the average of the tritium collected in the two 5-min samples just before addition of the N-substituted nicotine analogue. The sums of the increase in collected tritium resulting from either exposure to the test compound or exposure to nicotine in the absence and presence of the test compound equaled total [^3 H]overflow. [^3 H]overflow was calculated by subtracting the [^3 H]outflow during an equivalent period of prestimulation from the values in samples collected during and after drug exposure. Inasmuch as the radiolabelled compounds were not separated and identified, the tritium collected in superfusate is referred to as either [^3 H]outflow or [^3 H]overflow, rather than as [^3 H]DA. [^3 H]Overflow primarily represents [^3 H]DA in the presence of nomifensine and pargyline in the superfusion buffer (Zumstein et al. 1981).
In these experiments, the striatal slices were superfused for 60 min with various concentrations of the analogues prior to nicotine (10 μM) exposure. Antagonist activity was evaluated by comparing the nicotine-evoked [^3 H]overflow in the absence and presence of the analogues. […] The relative order of potency of the classical and pyridine-N substituted nicotine analogues for inhibition of nicotine-evoked [^3 H]DA release from rat striatal slices is illustrated in FIG. 2 by a comparison of their IC50 values.
FIG. 2. IC50 values for N-substituted analogues of nicotine, nornicotine, and cotinine to inhibit nicotine-evoked [^3 H]DA release from rat striatal slices. Inhibition produced by the classical nicotinic inhibitors, mecamylamine (MEC) and DHBE was also determined. Slices were superfused with inhibitor for 60 min […] co-superfusion with 10 μM nicotine. Inhibition was determined by comparing [^3 H]DA release in the absence and presence of various concentrations of inhibitor. IC50 values were determined using the Logit-log plot (pseudo-Hill plot). […] IC50 for each animal was determined as the intercept of the linear regression.

[6] = tested on: [^3 H]DA release from rat striatal slices; test: [3H]DA release assay: compound-evoked (intrinsic agonist) release; assay type: cell-based
Experimental: as §1, §2, §3

[7] = tested on: dopamine 2 agonist binding in rat basil ganglia; conditions: in vivo; cited from earlier work
physchem = conditions: d2o, 1H-NMR
Experimental: (§4) pKa Determination. A solution [1 g in 12 mls of deuterium oxide 100% atom D] of the compound under investigation was gradually acidified by drop-wise addition of a solution of DC1 to D2 O (20% wt/wt, 99.5% atom D). The pD values were measured on a Corning pH meter. For each pD value, a sample (0.8 mls) was analyzed by ^1 H-NMR on a Varian Unity 300 MHz spectrometer using sodium 3(trimethylsilyl)-2,2,3,3-d4 -propionate (TSP) as internal reference. Protonation of the pyrrolidine- and pyridine-N atoms was followed by observing the variation in chemical shift of the N-1'-methyl and 2'-proton signals from pO 8.8 to pD 3.0. A titration curve of pD vs chemical shift was constructed to determine the pKa values of pyrrolidino-N atom and/or the pyridine-N atom.
as §4, with “Computational Chemistry.” for “pKa Determination.”, “3-(trimethylsilyl)-2,2,3,3-d4” for “3(trimethylsilyl)-2,2,3,3-d4”, “N-1'methyl” for “N-1'-methyl”, “pD” for “pO”

rabbit caudate nucleus = conditions: cited from earlier work
nicotine receptor = conditions: cited from earlier work
[8] = tested on: receptors that contain the α7, α8, or α9 subunits; conditions: cited from earlier work

## CN1CCCC1=O [N-methyl-2-pyrrolidone]
[1]
  toxicity: have not revealed any significant toxicity
skin
  skin penetration enhancement: effective penetration enhancer
[2]
  irritation or sensitization potential: very little irritation or sensitization potential

## CN1CCC[C@H]1c1cccnc1 [S(-)nicotine, reference compound]
[3]
  effect on [3H]dopamine release from rat striatal synaptosomes: stimulates the release of [3H]dopamine from rat striatal synaptosomes
[4]
  effect on IR-rCRH secretion (in words): stimulated IR-rCRH secretion in a dose-dependent fashion
[5]
  nicotine (10 μM)-evoked total [3H]overflow, grand mean: 2.52 ± 0.12
  nicotine (10 μM)-evoked total [3H]overflow, range: 1.03-4.65
[6]
  effect on [3H]DA release / intrinsic agonist activity (in words): concentration-dependent increase in [^3 H]DA release and was the most potent and efficacious compound; also recorded: concentration-dependent increase in [^3 H]DA release from rat striatal slices
  total [3H]overflow (effect on [3H]DA release): 2.80 ± 0.28 and 3.24 ± 0.37 and 5.56 ± 0.50
[6]; Rattus norvegicus, read-out: EC50 for nicotine-evoked [3H]DA release
  EC50: 2000 nM
[7]
  effect of chronic treatment on dopamine 2 agonist binding: decreases dopamine 2 agonist binding in rat basil ganglia
physchem; pKa of pyridine-N functionality
  pKa: 3.75
physchem; pKa of pyrrolidino-N (N'-amino) functionality
  pKa: 8.4
Rabbit caudate nucleus
  effect on basal outflow of GABA: accelerated the basil outflow of gamma-aminobutyric acid (GABA)

## CN1[C@@H](CC(=O)c2ccccc2)CCC[C@H]1C[C@H](O)c1ccccc1 [alpha-lobeline]
Nicotine receptor
  agonist/antagonist character: mixed agonist-antagonist

## α-bungarotoxin
[8]
  selective blockade of nicotinic receptors with α7, α8 or α9 subunits: selectively blocks receptors that contain the α7, α8, or α9 subunits
